Experimental data: ChEMBL document CHEMBL5370548, “Discovery, optimization and biological evaluation of novel HBsAg production inhibitors” (Eur J Med Chem, 2023)
The source made the active and inactive calls. No cut-off for these calls is given here.

Experiments:
[1] = AUC (0 to t) in ICR mouse at 1 mg/kg, iv by UPLC-MS/MS analysis; type: ADME, organism-based; set-up: dose 1 mg/kg, route iv; conditions: in vivo
[2] = AUC (0 to infinity) in ICR mouse at 1 mg/kg, iv by UPLC-MS/MS analysis; type: ADME, organism-based; set-up: dose 1 mg/kg, route iv; conditions: in vivo
[3] = Half life in ICR mouse at 1 mg/kg, iv by UPLC-MS/MS analysis; type: ADME, organism-based; conditions: in vivo
[4] = Volume of distribution at steady state in ICR mouse at 1 mg/kg, iv by UPLC-MS/MS analysis; type: ADME, organism-based; conditions: in vivo, read-out: Vdss
[5] = Clearance in ICR mouse at 1 mg/kg, iv by UPLC-MS/MS analysis; type: ADME, organism-based; conditions: in vivo
[6] = Bioavailability in ICR mouse at 1 mg/kg, iv by UPLC-MS/MS analysis; type: ADME, organism-based; conditions: in vivo
[7] = AUC (0 to t) in ICR mouse at 10 mg/kg, IG by UPLC-MS/MS analysis; type: ADME, organism-based; set-up: dose 10 mg/kg, route ig; conditions: in vivo, po
[8] = AUC (0 to infinity) in ICR mouse at 10 mg/kg, IG by UPLC-MS/MS analysis; type: ADME, organism-based; set-up: dose 10 mg/kg, route ig; conditions: in vivo, po
[9] = Half life in ICR mouse at 10 mg/kg, IG by UPLC-MS/MS analysis; type: ADME, organism-based; conditions: in vivo, po
[10] = Tmax in ICR mouse at 10 mg/kg, IG by UPLC-MS/MS analysis; type: ADME, organism-based; conditions: in vivo, po
[11] = Cmax in ICR mouse at 10 mg/kg, IG by UPLC-MS/MS analysis; type: ADME, organism-based; set-up: dose 10 mg/kg, route ig; conditions: in vivo, po
Hepatitis B virus [12] = experiment: Antiviral activity against HBV infected in human HepG2.2.15 cells assessed as inhibition of HBV DNA incubated for 6 days with replacement of fresh media for every 72 hrs by real-time qPCR analysis; type: functional, organism-based
Hepatitis B virus [13] = experiment: Antiviral activity against HBV infected in human HepG2.2.15 cells assessed as inhibition of HBsAg level incubated for 6 days with replacement of fresh media for every 72 hrs by real-time qPCR analysis; type: functional, organism-based
[14] = Metabolic stability in human liver microsomes assessed as half life at 1 uM preincubated for 5 mins followed by NADPH addition and measured upto 60 min by LC-MS/MS analysis; type: ADME, Microsome; conditions: time < 65 min
[15] = Metabolic stability in human liver microsomes assessed as intrinsic clearance at 1 uM preincubated for 5 mins followed by NADPH addition and measured upto 60 min by LC-MS/MS analysis; type: ADME, Microsome; conditions: time < 65 min, read-out: CLH
[16] = Metabolic stability in human liver microsomes assessed as parent compound remaining at 1 uM measured upto 60 min in presence of NADPH by LC-MS/MS analysis; type: ADME, Microsome; conditions: read-out: Stability
[17] = Metabolic stability in mouse liver microsomes assessed as half life at 1 uM preincubated for 5 mins followed by NADPH addition and measured upto 60 min by LC-MS/MS analysis; type: ADME, Microsome; conditions: time < 65 min
[18] = Metabolic stability in mouse liver microsomes assessed as intrinsic clearance at 1 uM preincubated for 5 mins followed by NADPH addition and measured upto 60 min by LC-MS/MS analysis; type: ADME, Microsome; conditions: time < 65 min, read-out: CLH
[19] = Metabolic stability in mouse liver microsomes assessed as parent compound remaining at 1 uM measured upto 60 min in presence of NADPH by LC-MS/MS analysis; type: ADME, Microsome; conditions: read-out: Stability
Hepatitis B virus [20] = experiment: In vivo antiviral activity against HBV infected in uPA/SCID mouse assessed as reduction in serum HBsAg level at 10 mg/kg, po administered twice daily for 21 days and measured upto 35 days; type: functional; conditions: time <= 35 day
HepG2 2.2.15 = experiment: Cytotoxicity against human HepG2.2.15 cells by CCK-8 method; type: functional
Hepatitis B virus [21] = experiment: In vivo antiviral activity against HBV infected in uPA/SCID mouse assessed as reduction in serum HBsAg level at 10 mg/kg, po administered twice daily for 28 days; type: functional, organism-based; conditions: time 28.0 day

Compound	EC50 (Hepatitis B virus [12])	EC50 (Hepatitis B virus [13])	half-life at 1 µM [14]	remaining at 1 h, 1 µM [16]	also measured
COCCCOc1cc2c(cc1OC)-c1cc(=O)c(C(=O)O)cn1[C@H](C(C)C)C2	1 nM	6 nM	–	–	AUC(0-t) [1]: 346 ng·h/mL; AUC(0-inf) [2]: 349 ng·h/mL; half-life [3]: 0.653 h; Vd [4]: 2.7 L/kg; clearance [5]: 47.8 mL/min/kg; bioavailability [6]: 88.6%; AUC(0-t) [7]: 3060 ng·h/mL; AUC(0-inf) [8]: 3080 ng·h/mL; half-life [9]: 1.12 h; Tmax [10]: 0.25 h; Cmax [11]: 1100 ng/mL
Fc1cc(N2CC(F)C2)cc(N2[C@@H]3CCC[C@H]2c2cnc(-c4ccccn4)nc2C3)n1 (single isomer, unassigned)	> 10000 nM	> 10000 nM	–	–	–
COC1CCN(c2cc(F)nc(N3[C@H]4CC[C@@H]3c3cnc(-c5ncccn5)nc3C4)c2)C1 (some centres undefined)	189 nM	193 nM	–	–	–
CN(C)c1cc(F)nc(N2[C@@H]3CCC[C@H]2c2cnc(-c4ncccn4)nc2C3)c1 (single isomer, unassigned)	2 nM	14 nM	1.93 h	69%	AUC(0-t) [1]: 2480 ng·h/mL; CLint scaled at 1 µM [15]: 10.7 mL/min/kg; half-life at 1 µM [17]: 1.12 h; CLint scaled at 1 µM [18]: 81.4 mL/min/kg; remaining at 1 h, 1 µM [19]: 52.4%; AUC(0-inf) [2]: 2490 ng·h/mL; half-life [3]: 1.65 h; Vd [4]: 0.96 L/kg; clearance [5]: 6.67 mL/min/kg; bioavailability [6]: 125%; AUC(0-t) [7]: 31000 ng·h/mL; AUC(0-inf) [8]: 31900 ng·h/mL; half-life [9]: 1.95 h; Tmax [10]: 0.5 h; Cmax [11]: 9900 ng/mL; Activity (Hepatitis B virus [20]): 0.74 log10/ml
CN(C)c1cc(F)nc(N2[C@H]3CC[C@@H]2c2cnc(-c4ncccn4)nc2C3)c1	34 nM	41 nM	> 3.33 h	86.2%	half-life at 1 µM [17]: 1.63 h; CLint scaled at 1 µM [18]: 56.2 mL/min/kg; remaining at 1 h, 1 µM [19]: 63.9%
COC1CN(c2cc(F)nc(N3[C@@H]4CCC[C@H]3c3cnc(-c5ncccn5)nc3C4)c2)C1 (single isomer, unassigned)	16 nM	16 nM	> 3.33 h	92.3%	half-life at 1 µM [17]: > 3.33 h; remaining at 1 h, 1 µM [19]: 80.4%
COC1CN(c2cc(F)nc(N3[C@H]4CC[C@@H]3c3cnc(-c5ncccn5)nc3C4)c2)C1	31 nM	116 nM	> 3.33 h	105%	–
CN(C)c1cc(N2[C@H]3CC[C@@H]2c2cnc(-c4ncccn4)nc2C3)cc(F)n1	89 nM	2450 nM	–	–	–
COc1cc(N2[C@H]3CC[C@@H]2c2cnc(-c4ncccn4)nc2C3)cc(F)c1F	169 nM	443 nM	> 3.33 h	99.1%	–
COCCN(C)c1cc(F)nc(N2[C@H]3CC[C@@H]2c2cnc(-c4ncccn4)nc2C3)c1	21 nM	31 nM	–	–	–
Fc1cc(N2CCOCC2)cc(N2[C@H]3CC[C@@H]2c2cnc(-c4ncccn4)nc2C3)n1	39 nM	54 nM	–	–	–
COCCOc1cc(F)nc(N2[C@H]3CC[C@@H]2c2cnc(-c4ncccn4)nc2C3)c1	44 nM	73 nM	–	–	–
COCCNc1cc(F)nc(N2[C@H]3CC[C@@H]2c2cnc(-c4ncccn4)nc2C3)c1	111 nM	94 nM	–	–	–
Fc1cc(NCC2CC2)cc(N2[C@H]3CC[C@@H]2c2cnc(-c4ncccn4)nc2C3)n1	105 nM	106 nM	–	–	–
CS(=O)(=O)N1CCN(c2cc(F)nc(N3[C@@H]4CCC[C@H]3c3cnc(-c5ncccn5)nc3C4)c2)CC1 (single isomer, unassigned)	75 nM	25 nM	> 3.33 h	94%	half-life at 1 µM [17]: > 3.33 h; remaining at 1 h, 1 µM [19]: 85.7%
CN(C)c1cc(F)nc(N2[C@@H]3CCC[C@H]2c2cnc(-c4ccccn4)nc2C3)c1 (single isomer, unassigned)	> 10000 nM	> 10000 nM	–	–	–
COCCN(C)c1cc(F)nc(N2C[C@H]3CC[C@@H]2c2cnc(-c4ncccn4)nc23)c1	154 nM	244 nM	–	–	–
Fc1cc(N2CC(F)C2)cc(N2[C@H]3CC[C@@H]2c2cnc(-c4ncccn4)nc2C3)n1	18 nM	44 nM	> 3.33 h	99.7%	AUC(0-t) [1]: 3410 ng·h/mL; CC50 (HepG2 2.2.15): > 100000 nM; AUC(0-inf) [2]: 3410 ng·h/mL; half-life [3]: 1.16 h; Vd [4]: 0.49 L/kg; clearance [5]: 4.88 mL/min/kg; bioavailability [6]: 80.2%; AUC(0-t) [7]: 27400 ng·h/mL; AUC(0-inf) [8]: 27400 ng·h/mL; half-life [9]: 1.23 h; Tmax [10]: 0.25 h; Cmax [11]: 9580 ng/mL; Activity (Hepatitis B virus [20]): 1.08 log10/ml; Activity (Hepatitis B virus [21]): Active
COCCN(C)c1cc(F)nc(N2C[C@@H]3CC[C@H]2c2cnc(-c4ncccn4)nc23)c1	1090 nM	> 10000 nM	–	–	–
COc1cc(F)nc(N2[C@@H]3CCC[C@H]2c2cnc(-c4ncccn4)nc2C3)c1 (single isomer, unassigned)	15 nM	26 nM	–	–	–
Fc1cc(N2CC(F)C2)cc(N2[C@@H]3CCC[C@H]2c2cnc(-c4ncccn4)nc2C3)n1 (single isomer, unassigned)	7 nM	12 nM	–	–	–
